Test system: chick chorioallantoic membrane (CAM)
Assay: Chick chorioallantoic membrane (CAM) assay, paclitaxel in methylcellulose disks
Format: in vivo
Text: As noted above, the present invention provides methods and compositions which utilize anti-angiogenic factors. Briefly, within the context of the present invention, anti-angiogenic factors should be understood to include any protein, peptide, chemical, or other molecule, which acts to inhibit vascular growth. A variety of methods may be readily utilized to determine the anti-angiogenic activity of a given factor, including for example, chick chorioallantoic membrane ("CAM") assays. Briefly, as described in more detail below in Examples 2A and 2C, a portion of the shell from a freshly fertilized chicken egg is removed, and a methyl cellulose disk containing a sample of the anti-angiogenic factor to be tested is placed on the membrane. After several days (e.g., 48 hours), inhibition of vascular growth by the sample to be tested may be readily determined by visualization of the chick chorioallantoic membrane in the region surrounding the methyl cellulose disk. Inhibition of vascular growth may also be determined quantitatively, for example, by determining the number and size of blood vessels surrounding the methyl cellulose disk, as compared to a control methyl cellulose disk.
Fertilized, domestic chick embryos were incubated for 3 days prior to shell-less culturing. […] These were then placed into an incubator at 90% relative humidity and 3% CO2 and incubated for 3 days.
The membranes of the 8 day-old shell-less embryo were flooded with 2% glutaraldehyde in 0.1M Na cacodylate buffer; additional fixative was injected under the CAM. After 10 minutes in situ, the CAM was removed and placed into fresh fixative for 2 hours at room temperature. The tissue was then washed overnight in cacodylate buffer containing 6% sucrose. The areas of interest were postfixed in 1% osmium tetroxide for 1.5 hours at 4° C. The tissues were then dehydrated in a graded series of ethanols, solvent exchanged with propylene oxide, and embedded in Spurr resin. Thin sections were cut with a diamond knife, placed on copper grids, stained, and examined in a Joel 1200EX electron microscope. Similarly, […] sections were cut and stained with toluene blue for light microscopy.
This imaging setup was used at a magnification of 160 times which permitted the direct visualization of blood cells within the capillaries; thereby blood flow in areas of interest could be easily assessed and recorded. […] This scale represents the degree of overall inhibition with maximal inhibition represented as a 3 on the avascular gradient scale.

For `CC(=O)O[C@H]1C(=O)[C@@]2(C)[C@H]([C@H](OC(=O)c3ccccc3)[C@]3(O)C[C@H](OC(=O)[C@H](O)[C@@H](NC(=O)c4ccccc4)c4ccccc4)C(C)=C1C3(C)C)[C@]1(OC(C)=O)CO[C@@H]1C[C@@H]2O` [paclitaxel], the avascular zone diameter (48 h exposure, 10μ paclitaxel per 10 ml methylcellulose) was 6 mm, the inhibition of angiogenesis (48 hours after application) was “angiogenesis was inhibited” and the “cells arrested in mitosis in avascular zones” value (CAM histology) was “abundance of cells arrested in mitosis in all three germ layers”. For the same compound, the “onset of inhibition of angiogenesis” value (after application) was 9 h, the “time without revascularization of avascular zone” value (after application) was “at least 7 days” and the avascular gradient scale (within 48 hours, depending on concentration) was 3 (avascularity extending beyond the disk (6 mm in diameter)). It also gave an avascular zone diameter (within 48 hours, methylcellulose disks) of 6 mm.
